Reference: US7393824B1, “Methods of peptide preparation” (Lytix Biopharma, priority 2000, dated 2008)
Where two headings read alike, the source gives them in different places. Residues, ends and D or L forms follow the SMILES beside them.

Assays:
[1] = tested on: Meth A murine sarcoma cell line; assay type: cell-based; settings: for IC50: 4 h
Method: Peptide solutions (0.1 ml) were added and the plates incubated at 37° C. for 30 minutes, 4 hours or 24 hours. The cytotoxicity was measured using the MTT method (Mosmann et al., J. Immunol. (1986) 136, 2348-2357).

[2] = tested on: Escherichia coli ATCC 25922; assay type: cell-based
Method: (§1) The bacterial strains used were: Escherichia coli ATCC 25922 and Staphylococcus aureus ATCC 25923. All strains were stored at −70° C. The bacteria were grown in 2% Bacto Peptone water (Difco 1807-17-4). All tests were performed with bacteria in mid-logarithmic growth phase. Determination of the minimum inhibitory concentration (MIC) of the peptides for bacterial strains were performed in 1% Bacto Peptone water. A standard microdilution technique with an inoculum of 2×10^6 CFU/ml was used. All assays were performed in triplets. Since the peptides are positively charged and therefore could adhere to the plastic wells, we controlled the actual concentration of the peptides in the solution by HPLC. There was no difference between the concentration of the peptides before or after adding the solution to the plastic wells.

[3] = tested on: Staphylococcus aureus ATCC 25923; assay type: cell-based
Method: as §1

[4] = tested on: MRC-5 cells (normal fibroblasts); experiment: Fibroblast assay (MTT); assay type: cell-based
Method: The cells were washed with PBS and then trypsinated using 2 ml trypsin (for a 80 cm culture flask). After the cells had detached from the wall, usually after ca 3 min. of incubation, 5 ml medium with FBS were added. The cells were resuspended and counted. The cells were then transferred to a centrifugation tube and spinned at 1500 rpm for 10 min. The supernatant was removed and the cells resuspended to a concentration of 1×10^5 cells/ml. 100 ul cells suspension was transferred to each well in a 96-well microtiter plate and incubated for 25 hours to allow the cells to attach. Following the incubation, the medium containing serum was removed by turning the plate upside down against a piece of tissue. 100 ul medium without serum and L-glutamine (assay medium) was added to each well, and then removed as before. This was done to remove any trace of serum. […] The rest of the assay was done as previously described for methA, except that after the 2 hour incubation following MTT addition, 80 ul medium instead of 130 ul were removed.

human red blood cells = experiment: Hemolytic assay; assay type: cell-based; settings: for EC50: red cells of human
Method: The hemolytic activities of the peptides were determined using fresh human red blood cells. 8 ml blood was taken from a healthy person. 4 ml blood was transferred to a polycarbonate tube containing heparin to a final concentration of 10 U/ml, and the remaining 4 ml blood was transferred to a glass tube containing EDTA with final concentration of 15% EDTA. The erythrocytes were isolated from heparin-treated blood by centrifugation in 1500 rpm for 10 min and washed three times with phosphate-buffered saline (PBS) to remove plasma and buffy coat. The cell pellet was resuspended in PBS to make the final volume of 4 ml. The peptide was diluted to a concentration of 2 mg/ml and 0.1 mg/ml. The peptide was further diluted to the concentrations as stated in Table 1. For each tube PBS was added first, then RBCs and peptide solutions. The hematocrit in the blood treated with EDTA was determined after 30 min with Sysmex K-1000, and the resuspended RBCs were diluted into 10% hematocrit. RBCs in PBS (1%) with and without peptides (Table 18) were incubated in a shaker at […] for 1 hour and then centrifuged at 4000 rpm for 5 min. The supernatant were carefully transferred to new polycarbonate tubes and the absorbance of the supernatant was measured at 540 nm. Baseline hemolysis was hemoglobin released in the presence of PBS, and 100% hemolysis was hemoglobin released in the presence of 0.1% Triton X-100.

fibroblasts = settings: cited from earlier work
human erythrocytes = settings: cited from earlier work
E. coli = settings: from the literature; cited from earlier work
S. aureus = settings: from the literature; cited from earlier work

With `CSCC[C@H](NC(=O)[C@H](CCCNC(=N)N)NC(=O)[C@H](C)NC(=O)[C@H](C)NC(=O)[C@H](Cc1c[nH]c2ccccc12)NC(=O)[C@H](CCCNC(=N)N)NC(=O)[C@H](Cc1ccccc1)NC(=O)[C@H](C)NC(=O)[C@H](CCCCN)NC(=O)[C@H](CCCNC(=N)N)NC(=O)[C@H](Cc1c[nH]c2ccccc12)NC(=O)[C@H](C)NC(=O)[C@@H]1CCCN1)C(=O)N[C@@H](CC(C)C)C(=O)N[C@@H](CCCCN)C(=O)N[C@@H](CCCCN)C(=O)N[C@@H](C)C(=O)N[C@@H](C)C(=O)O` [W11→A11, LFB 14-31A2,6,10,11,17F7K16L14R4] (H-PAWRKAFRWAARMLKKAA-OH; N-terminus and C-terminus assumed) the “fold decrease in activity against Meth A compared to LFB(14-31)m” value [1] was 1.5 fold, the IC50 [1] was 11 µM and the “Mic E-coli” value ([2]; ATCC 25922) was 4.6 µM. The “Mic S. Aureus” value ([3]; ATCC 25923) was greater than 1.2 µM.
In the case of `CSCC[C@H](NC(=O)[C@H](CCCNC(=N)N)NC(=O)[C@H](C)NC(=O)[C@H](C)NC(=O)[C@H](C)NC(=O)[C@H](CCCNC(=N)N)NC(=O)[C@H](Cc1ccccc1)NC(=O)[C@H](C)NC(=O)[C@H](CCCCN)NC(=O)[C@H](CCCNC(=N)N)NC(=O)[C@H](Cc1c[nH]c2ccccc12)NC(=O)[C@H](C)NC(=O)[C@@H]1CCCN1)C(=O)N[C@@H](CC(C)C)C(=O)N[C@@H](CCCCN)C(=O)N[C@@H](CCCCN)C(=O)N[C@@H](C)C(=O)N[C@@H](C)C(=O)O` [W9,11→A9,11, LFB 14-31A2,6,9,10,11,17F7K16L14R4] (H-PAWRKAFRAAARMLKKAA-OH), the IC50 [1] is reported as 110 µM, the “Mic E-coli” value ([2]; ATCC 25922) is reported as 14.7 µM and the “Mic S. Aureus” value ([3]; ATCC 25923) is reported as 14.7 µM. For the same compound, the IC50 [4] was greater than 489 µM, the “toxicity to fibroblasts” value [4] was “no cytotoxic activity” and the “cytotoxic / hemolytic activity against red blood cells” value (human red blood cells) was “no cytotoxic activity”. The EC50 (human red blood cells) was greater than 489 µM.
For `CSCC[C@H](NC(=O)[C@H](CCCNC(=N)N)NC(=O)[C@H](Cc1c[nH]c2ccccc12)NC(=O)[C@H](C)NC(=O)[C@H](Cc1c[nH]c2ccccc12)NC(=O)[C@H](CCCNC(=N)N)NC(=O)[C@H](Cc1ccccc1)NC(=O)[C@H](C)NC(=O)[C@H](CCCCN)NC(=O)[C@H](CCCNC(=N)N)NC(=O)[C@H](C)NC(=O)[C@H](C)NC(=O)[C@@H]1CCCN1)C(=O)N[C@@H](CC(C)C)C(=O)N[C@@H](CCCCN)C(=O)N[C@@H](CCCCN)C(=O)N[C@@H](C)C(=O)N[C@@H](C)C(=O)O` [W3→A3, LFB 14-31A2,3,6,10,17F7K16L14R4] (H-PAARKAFRWAWRMLKKAA-OH), the “Mic E-coli” value ([2]; ATCC 25922) was 6.9 µM, the “Mic S. Aureus” value ([3]; ATCC 25923) was 4.6 µM and the “toxicity to fibroblasts” value [4] was “little toxicity against fibroblasts”.
For `CC[C@H](C)[C@H](NC(=O)[C@H](C)NC(=O)[C@@H]1CCCN1)C(=O)N[C@@H](CCCNC(=N)N)C(=O)N[C@@H](CCCCN)C(=O)N[C@@H](C)C(=O)N[C@@H](Cc1ccccc1)C(=O)N[C@@H](CCCNC(=N)N)C(=O)N[C@@H](Cc1c[nH]c2ccccc12)C(=O)N[C@@H](C)C(=O)N[C@@H](Cc1c[nH]c2ccccc12)C(=O)N[C@@H](CCCNC(=N)N)C(=O)N[C@@H](CCSC)C(=O)N[C@@H](CC(C)C)C(=O)N[C@@H](CCCCN)C(=O)N[C@@H](CCCCN)C(=O)N[C@@H](C)C(=O)N[C@@H](C)C(=O)O` [W3→I3] (H-PAIRKAFRWAWRMLKKAA-OH; N-terminus and C-terminus assumed), the “Mic E-coli” value ([2]; Table 2) was 2/4 and the “Mic S. Aureus” value ([3]; Table 2) was 2/4.
In the case of `CSCC[C@H](NC(=O)[C@H](CCCNC(=N)N)NC(=O)[C@H](Cc1c[nH]c2ccccc12)NC(=O)[C@H](C)NC(=O)[C@H](C)NC(=O)[C@H](CCCNC(=N)N)NC(=O)[C@H](Cc1ccccc1)NC(=O)[C@H](C)NC(=O)[C@H](CCCCN)NC(=O)[C@H](CCCNC(=N)N)NC(=O)[C@H](Cc1c[nH]c2ccccc12)NC(=O)[C@H](C)NC(=O)[C@@H]1CCCN1)C(=O)N[C@@H](CC(C)C)C(=O)N[C@@H](CCCCN)C(=O)N[C@@H](CCCCN)C(=O)N[C@@H](C)C(=O)N[C@@H](C)C(=O)O` [W9→A9, LFB 14-31A2,6,9,10,17F7K16L14R4] (H-PAWRKAFRAAWRMLKKAA-OH; N-terminus and C-terminus assumed), the “Mic E-coli” value ([2]; ATCC 25922) is reported as 4.6 µM and the “Mic S. Aureus” value ([3]; ATCC 25923) is reported as 2.4 µM.
With `CC[C@H](C)[C@H](NC(=O)[C@H](C)NC(=O)[C@@H](NC(=O)[C@H](CCCNC(=N)N)NC(=O)[C@H](Cc1ccccc1)NC(=O)[C@H](C)NC(=O)[C@H](CCCCN)NC(=O)[C@H](CCCNC(=N)N)NC(=O)[C@H](Cc1c[nH]c2ccccc12)NC(=O)[C@H](C)NC(=O)[C@@H]1CCCN1)[C@@H](C)CC)C(=O)N[C@@H](CCCNC(=N)N)C(=O)N[C@@H](CCSC)C(=O)N[C@@H](CC(C)C)C(=O)N[C@@H](CCCCN)C(=O)N[C@@H](CCCCN)C(=O)N[C@@H](C)C(=O)N[C@@H](C)C(=O)O` [W9,11→I9,11] (H-PAWRKAFRIAIRMLKKAA-OH; N-terminus and C-terminus assumed) the IC50 [1] was 22 µM, the “Mic E-coli” value ([2]; ATCC 25922) was 35 µM and the “Mic S. Aureus” value ([3]; ATCC 25923) was 19 µM. For the same compound, the IC50 [4] was 26 µM and the EC50 (human red blood cells) was 284 µM.
For (KAAKKAA)3, the “activity against fibroblasts” value (fibroblasts) is listed as “no measurable activity”, the “activity against human erythrocytes” value (human erythrocytes) is listed as “no measurable activity” and the “MIC against E. coli” value (E. coli) is listed as 8 µM. The “MIC against S. aureus” value (S. aureus) was 8 µM.
